Source: patent US20210290676A1, “IMPROVING THE EFFICACY AND SAFETY OF ADOPTIVE CELLULAR THERAPIES” (University of Southern California, priority 2018, published 2021)

What was measured:
Assay type in all cases: cell-based, human
[1] = system: CD8+CD45RA+CCR7+CD62L+ T cells; test: Flow cytometry for CD8, CD45RA, CCR7 and CD62L on inhibitor-treated T cells; settings: cells cultured for 14 days
Protocol: (§1) DAY 0: Blood was obtained from unidentified donor. After RBC lysis, PBMC were collected using Ficoll-Hypaque separation. […] T cells were cultured in three different conditions: • 1. XVIVO 15 medium (Lonza) with IL2 50 IU/ml, CD3 antibody (30 ng/ml) and CD28 antibody (30 ng/ml). • 2. XVIVO 15 medium (Lonza) with CD3 antibody (30 ng/ml) and CD28 antibody (30 ng/ml). • 3. XVIVO 15 medium (Lonza) with IL2 50 IU/ml DAY 1: Cells were plated in a 6-well plate at a density of 1 million cells in 2 ml/of media (as described above) and treated with different inhibitors
(§2) A second aliquot of the cells cultured for 13 days with all the treatments listed above (1-21) was washed with PBS+1% FBS, stained with CD8-PerCP, CD45RA-FITC, CCR7-PE and CD62L-APC (5% Y/100 μl/sample for each of 4 antibodies) at 4° C. for 1 h, washed twice with PBS+100 FBS and analyzed on flow cytometer to check if these drugs are enriching T stem cells showing surface expression of CD8+CD45RA+CCR7+CD62L+.
(§3) Day 0: Blood was obtained from unidentified donor. After RBC lysis, PBMC were collected using Ficoll-Hypaque separation. 200 million T cells were isolated from PBMCs using CD3 microbeads. T cells were cultured overnight in XVIVO 15 medium (Lonza) with IL2 (50 IU/ml), 30 ng/ml of CD3 and CD28 antibodies
(§4) Day 1: Cells were plated in 24-well plates at a density of 0.3 million cells/ml in each well and treated with different drugs.
(§5) On day 7, culture medium was replaced with fresh medium with fresh drugs.
(§6) On day 13, culture medium was replaced with fresh medium and fresh drugs. Half of the cells were transferred to 6-well plates.
as §2, with “14” for “13”, “above” for “above (1-21)”, “(5 ul/100 ul/sample” for “(5% Y/100 μl/sample”, “PBS+1%” for “PBS+100”, “enriching for” for “enriching”, “T” for “T stem”

[2] = system: CD45RA+CCR7+CD62L+ T cells; test: Flow cytometry for CD45RA, CCR7 and CD62L on inhibitor-treated T cells (all T cells); settings: cells cultured for 14 days
Protocol: as §1, §2, §3, §4, §5, §6
as §2, with “14” for “13”, “above” for “above (1-21)”, “(5 ul/100 ul/sample” for “(5% Y/100 μl/sample”, “PBS+1%” for “PBS+100”, “enriching for” for “enriching”, “T” for “T stem”

[3] = system: Pgp+ (DiOC2(3)-dye effluxing) T cells; test: DiOC2(3) dye efflux flow cytometry of inhibitor-treated T cells; settings: treatment for 13 days, IL2 + CD3 and CD28 antibodies
Protocol: (§7) The use of P-glycoprotein (Pgp)-mediated efflux of DiOC2(3) to isolate stem like T cells for adoptive cellular therapy has been described in application no. […] In the following examples, DiOC2(3) staining was used to study the effect of different inhibitors on generation of stem like T cells.
as §1
(§8) The cell growth medium was changed in 6-well plates and fresh drugs were added at same concentration for one more week.
(§9) […] (DAY 11): Culture medium was changed and fresh drugs were added in 6-well plates.
(§10) Subsequently, cells were washed with RPMI medium and dye was effluxed at 37° C. for 90 min. Cells were washed with […], stained with CD62L-APC (5 μl/100 μl/sample) at 4° C. for 1 h, washed twice with PBS+1% FBS and analyzed on flow cytometer to check if these drugs treatment leads to increase in Pgp+/CD62L positive population.
as §3, §4, §5, §6
(§11) Day 14: An aliquot of cells with all the treatments listed above (for 13 days) was used to stain the cells with DiOC2(3) (60 ng/ml in RPMI medium) at 4° C. for 40 min, washed with RPMI medium, DiOC2(3) dye was effluxed at 37° C. for 90 min, washed with PBS+1% FBS, stained with CD62L-APC antibody. CD62L is a marker for resting T cells. (5 μl/100 μl/sample) at 4° C. for 1 h, washed twice with PBS+1% FBS and analyzed on flow cytometer to check if these drugs are affecting the dye-effluxing or Pgp+ (i.e., DiOC2(3)-dull) T-cell population.

[4] = system: Pgp+ (DiOC2(3)-dye effluxing cells) and CD62L+ T cells; test: DiOC2(3) dye efflux plus CD62L-APC staining, flow cytometry of inhibitor-treated T cells; settings: treatment for 13 days, IL2 + CD3 and CD28 antibodies
Protocol: as §7, §1, §8, §9, §10, §3, §4, §5, §6, §11

Row | Compound | GATE P4 CD8(PerCP)+, CD45RA(FITC)+, CCR7 (PE)+, CD62L(APC) ([1]; 100 nM) | GATE P4 CD8(PerCP)+, CD45RA(FITC)+, CCR7 (PE)+, CD62L(APC) ([1]; 500 nM) | GATE P6 CD45RA(FITC)+, CCR7 (PE)+, CD62L(APC) ([2]; 100 nM) | GATE P6 CD45RA(FITC)+, CCR7 (PE)+, CD62L(APC) ([2]; 500 nM) | p2: pgp+ from Live cells ([3]; 100 nM) | p2: pgp+ from Live cells ([3]; 500 nM) | p5: double +ve pgp+ and CD62L-APC+ from Live cells ([4]; 100 nM) | p5: double +ve pgp+ and CD62L-APC+ from Live cells ([4]; 500 nM)
1 | CCCc1cc(C)[nH]c(=O)c1CNC(=O)c1cc(-c2ccc(N3CCN(C(C)C)CC3)nc2)cc2c1cnn2C(C)C [UNC1999] | 71.75% | 74.57% | 59.08% | 60.97% | 36.8 | 31.14 | 11.06 | 8.9
2 | BI7273 | 70.33% | 77.81% | 57.15% | 61.86% | 16.69 | 16.34 | 2.73 | 2.38
